Assay results reported in patent publication US11111251B2, “Positive allosteric modulators of the muscarinic acetylcholine receptor M1” (Vanderbilt University, priority 2016, dated 2021).
pEC50: −log10 of the molar value. Where two headings read alike, the source gives them in different places. Blank lines part the entries; values can stand above or below the molecule they belong to.

Biological target: T1, human mAChR M1 (Homo sapiens, UniProt P11229)
T1 sequence (P11229 1-460): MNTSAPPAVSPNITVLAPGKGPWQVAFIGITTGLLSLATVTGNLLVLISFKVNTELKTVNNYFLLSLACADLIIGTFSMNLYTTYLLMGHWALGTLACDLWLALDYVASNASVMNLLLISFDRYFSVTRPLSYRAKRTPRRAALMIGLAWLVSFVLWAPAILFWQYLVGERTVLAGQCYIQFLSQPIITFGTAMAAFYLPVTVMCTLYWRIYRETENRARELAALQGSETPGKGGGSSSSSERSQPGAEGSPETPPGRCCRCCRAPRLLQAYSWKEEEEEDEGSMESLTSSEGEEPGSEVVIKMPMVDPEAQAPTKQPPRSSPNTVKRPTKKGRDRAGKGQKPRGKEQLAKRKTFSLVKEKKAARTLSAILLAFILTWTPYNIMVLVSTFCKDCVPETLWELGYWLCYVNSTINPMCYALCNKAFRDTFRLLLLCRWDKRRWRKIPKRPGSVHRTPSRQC
Experiment: mAChR M1 cell-based functional assay: calcium mobilization, positive allosteric modulator mode (increase in EC20 acetylcholine response)
Details: for Emax: read-out: Human M1 Emax (%)
Text: a. Cell Lines Expressing Muscarinic Acetylcholine Receptors
Chinese hamster ovary (CHO-K1) cells stably expressing rat (r)M1 were purchased from the American Type Culture Collection and cultured according to their indicated protocol. CHO cells stably expressing human (h)M2, hM3, and hM5 were described previously (Levey, et al., 1991); hMi and hM4 cDNAs were purchased from Missouri S&T cDNA Resource; rM4 cDNA was provided by T. I. Bonner (National Institutes of Health, Bethesda, Md.). rM2 and rM3 were cloned from a rat brain cDNA library and sequence verified. hMi, rM2, rM3, hM4, and rM4 cDNAs were used to stably transfect CHO-K1 cells purchased from the American Type Culture Collection using Lipofectamine2000. To make stable rM2, hM2, rM3, hM4, and rM4 cell lines for use in calcium mobilization assays, these cells also were stably transfected with a chimeric G-protein (Gqi5) (provided by B. R. Conklin, University of California, San Francisco) using Lipofectamine 2000. rMi, hMi, rM3, hM3, rM5, and hM5 cells were grown in Ham's F-12 medium containing 10% heat-inactivated fetal bovine serum (FBS), 20 mM HEPES, and 50 μg/mL G418 sulfate. rM2-Gqi5, hM2-Gqi5, and hM4-Gqi5 cells were grown in the same medium also containing 500 μg/mL Hygromycin B. Stable rM4-Gqi5 cells were grown in DMEM containing 10% heat-inactivated FBS, 20 mM HEPES, 400 μg/mL G418 sulfate, and 500 μg/mL Hygromycin B.
b. Cell-Based Functional Assay of Muscarinic Acetylcholine Receptor Activity
For high throughput measurement of agonist-evoked increases in intracellular calcium, CHO-K1 cells stably expressing muscarinic receptors were plated in growth medium lacking G418 and hygromycin at 15,000 cells/20 μL/well in Greiner 384-well black-walled, tissue culture (TC)-treated, clear-bottom plates (VWR). Cells were incubated overnight at 37° C. and 5% CO2. The next day, cells were washed using an ELX 405 (BioTek) with four washes (80 μL) of assay buffer then aspirated to 20 μL. Next, 20 μL of 16 μM Fluo-4/acetoxymethyl ester (Invitrogen, Carlsbad, Calif.) prepared as a 2.3 mM stock in DMSO and mixed in a 1:1 ratio with 10% (w/v) Pluronic F-127 and diluted in assay buffer was added to the wells and the cell plates were incubated for 50 min at 37° C. and 5% CO2. Dye was removed by washing with the ELX 405 (four […], washes of assay buffer) then aspirated to 20 μL. Compound master plates were formatted in an 11 point CRC format (1:3 dilutions) in 100% DMSO with a starting concentration of 10 mM using the BRAVO liquid handler (Agilent). Test compound CRCs were then transferred to daughter plates (240 nL) using the Echo acoustic plate reformatter (Labcyte, Sunnyvale, Calif.) and then diluted into assay buffer (40 μL) to a 2× stock using a Thermo Fisher Combi (Thermo Fisher Scientific, Waltham, Mass.).
Calcium flux was measured using the Functional Drug Screening System (FDSS) 6000 (Hamamatsu Corporation, Tokyo, Japan) as an increase in the fluorescent static ratio. Compounds were applied to cells (20 μL, 2×) using the automated system of the FDSS 6000 at 4 s into the 300 s protocol and the data were collected at 1 Hz. At 144 s into the 300s protocol, 10 μL of an EC20 concentration of the muscarinic receptor agonist acetylcholine was added (5×), followed by the addition of 12 μL an EC80 concentration of acetylcholine at the 230 s time point (5×). Agonist activity was analyzed as a concentration-dependent increase in calcium mobilization upon compound addition. Positive allosteric modulator activity was analyzed as a concentration-dependent increase in the EC20 acetylcholine response. Antagonist activity was analyzed as a concentration-dependent decrease in the EC80 acetylcholine response. Concentration-response curves were generated using a four-parameter logistical equation in XLfit curve fitting software (IDBS, Bridgewater, N.J.) for Excel (Microsoft, Redmond, Wash.) or Prism (GraphPad Software, Inc., San Diego, Calif.).

[1] = Table 1, mAChR M1 cell-based functional assay, PAM mode, species not given, read-out: EC50
[2] = Table 2, human M1, read-out: Human M1 EC50

Structure (SMILES): Cc1ccc(Oc2cc(C(=O)NCC3CCCO3)nc3ccsc23)cn1 (centres unmarked) [Compound 35, 7-[(6-methyl-3-pyridyl)oxy]-N-(tetrahydrofuran-2-ylmethyl)thieno[3,2-b]pyridine-5-carboxamide]
- pEC50 [1]: < 5.00

Structure (SMILES): Cc1ccc(Oc2cc(C(=O)NC3CCCCNC3=O)nc3ccsc23)cn1 (centres unmarked) [Compound 36, 7-[(6-methyl-3-pyridyl)oxy]-N-(2-oxoazepan-3-yl)thieno[3,2-b]pyridine-5-carboxamide]
- pEC50 [1]: < 5.00

Structure (SMILES): Cc1ccc(Cc2cc(C(=O)N[C@H]3CCC[C@@H]3O)nc3ccsc23)cn1 [Compound 42, N-[(1S,2S)-2-hydroxycyclopentyl]-7-[(6-methyl-3-pyridyl)methyl]thieno[3,2-b]pyridine-5-carboxamide]
- pEC50 [1]: 6.44

Structure (SMILES): Cc1ccc(Cc2cc(C(=O)NC3CCCCC3)nc3ccsc23)cn1 [Compound 43, N-cyclohexyl-7-[(6-methyl-3-pyridyl)methyl]thieno[3,2-b]pyridine-5-carboxamide]
- pEC50 [1]: 5.70

Structure (SMILES): Cc1ccc(Cc2cc(C(=O)N[C@@H]3CC[C@H]3O)nc3ccsc23)cn1 [Compound 44]
- pEC50 [1]: 5.42

Structure (SMILES): Cc1ccc(Cc2cc(C(=O)N[C@H]3CCCCC[C@@H]3O)nc3ccsc23)cn1 [Compound 47, N-[(1S,2S)-2-hydroxycycloheptyl]-7-[(6-methyl-3-pyridyl)methyl]thieno[3,2-b]pyridine-5-carboxamide]
- pEC50 [1]: 6.93

Structure (SMILES): CO[C@H]1CCCC[C@@H]1NC(=O)c1cc(Cc2ccc(C)nc2)c2sccc2n1 [Compound 48, N-[(1S,2S)-2-methoxycyclohexyl]-7-[(6-methyl-3-pyridyl)methyl]thieno[3,2-b]pyridine-5-carboxamide]
- pEC50 [1]: 5.24

Structure (SMILES): Cc1ccc(Cc2cc(C(=O)NC3CCCC(O)C3)nc3ccsc23)cn1 (centres unmarked) [Compound 49, N-(3-hydroxycyclohexyl)-7-[(6-methyl-3-pyridyl)methyl]thieno[3,2-b]pyridine-5-carboxamide]
- pEC50 [1]: < 5.00

Structure (SMILES): Cc1ccc(Cc2cc(C(=O)NC3CCOCC3)nc3ccsc23)cn1 [Compound 50, 7-[(6-methyl-3-pyridyl)methyl]-N-tetrahydropyran-4-yl-thieno[3,2-b]pyridine-5-carboxamide]
- pEC50 [1]: 5.30

The remaining lines, values ahead:

- pEC50 [1]: 5.44
Structure (SMILES): Cn1cc2c(-c3cc(F)c(Cc4cc(C(=O)N[C@H]5CCCC[C@@H]5O)nc5ccsc45)c(F)c3)cccc2n1 [Compound 41, 7-[[2,6-difluoro-4-(2-methylindazol-4-yl)phenyl]methyl]-N-[(1S,2S)-2-hydroxycyclohexyl]thieno[3,2-b]pyridine-5-carboxamide]

- pEC50 [1]: 7.10
Structure (SMILES): Cc1ccc(Cc2cc(C(=O)N[C@H]3CCOC[C@@H]3O)nc3ccsc23)cn1 [Compound 45, N-[(3R,4S)-3-hydroxytetrahydropyran-4-yl]-7-[(6-methyl-3-pyridyl)methyl]thieno[3,2-b]pyridine-5-carboxamide]

- pEC50 [1]: 7.54
Structure (SMILES): Cc1ccc(Cc2cc(C(=O)N[C@H]3COCC[C@@H]3O)nc3ccsc23)cn1 [Compound 46, N-[(3S,4S)-4-hydroxytetrahydropyran-3-yl]-7-[(6-methyl-3-pyridyl)methyl]thieno[3,2-b]pyridine-5-carboxamide]

- pEC50 [2]: 5.44
- Emax (Table 2, human M1): 76.9%
Structure (SMILES): Cn1cc(-c2ccc(Cc3cc(C(=O)N[C@H]4CCCC[C@@H]4O)nc4ccsc34)c(F)c2)cn1 [Compound 51, 7-[[2-fluoro-4-(1-methylpyrazol-4-yl)phenyl]methyl]-N-[(1S,2S)-2-hydroxycyclohexyl]thieno[3,2-b]pyridine-5-carboxamide]

- pEC50 [2]: 5.71
- Emax (Table 2, human M1): 76%
Structure (SMILES): Cn1cc(-c2ccc(Cc3cc(C(=O)N[C@H]4CCOC[C@@H]4O)nc4ccsc34)c(F)c2)cn1 [Compound 52, 7-[[2-fluoro-4-(1-methylpyrazol-4-yl)phenyl]methyl]-N-[(3R,4S)-3-hydroxytetrahydropyran-4-yl]thieno[3,2-b]pyridine-5-carboxamide]

- pEC50 [2]: 5.51
- Emax (Table 2, human M1): 79%
Structure (SMILES): Cn1cc(-c2ccc(Cc3cc(C(=O)N[C@H]4COCC[C@@H]4O)nc4ccsc34)c(F)c2)cn1 [Compound 53, 7-[[2-fluoro-4-(1-methylpyrazol-4-yl)phenyl]methyl]-N-[(3S,4S)-4-hydroxytetrahydropyran-3-yl]thieno[3,2-b]pyridine-5-carboxamide]

- pEC50 [2]: < 5.00
- Emax (Table 2, human M1): 53.1%
Structure (SMILES): Cn1cc(-c2ccc(Cc3cc(C(=O)N[C@H]4CCCCC[C@@H]4O)nc4ccsc34)c(F)c2)cn1 [Compound 54, 7-[[2-fluoro-4-(1-methylpyrazol-4-yl)phenyl]methyl]-N-[(1S,2S)-2-hydroxycycloheptyl]thieno[3,2-b]pyridine-5-carboxamide]

- pEC50 [2]: 5.24
- Emax (Table 2, human M1): 31.1%
Structure (SMILES): Cn1cc(-c2ccc(Cc3cc(C(=O)N[C@@H]4CC[C@H]4O)nc4ccsc34)c(F)c2)cn1 [Compound 55, 7-[[2-fluoro-4-(1-methylpyrazol-4-yl)phenyl]methyl]-N-[(1R,2R)-2-hydroxycyclobutyl]thieno[3,2-b]pyridine-5-carboxamide]

- pEC50 [2]: 5.49
- Emax (Table 2, human M1): 51%
Structure (SMILES): Cn1cc(-c2ccc(Cc3cc(C(=O)N[C@H]4CCC[C@@H]4O)nc4ccsc34)c(F)c2)cn1 [Compound 56, 7-[[2-fluoro-4-(1-methylpyrazol-4-yl)phenyl]methyl]-N-[(1S,2S)-2-hydroxycyclopentyl]thieno[3,2-b]pyridine-5-carboxamide]

- pEC50 [2]: 5.58
- Emax (Table 2, human M1): 80.1%
Structure (SMILES): Cn1cc(-c2cc(F)c(Cc3cc(C(=O)N[C@H]4CCCC[C@@H]4O)nc4ccsc34)c(F)c2)cn1 [Compound 57, 7-[[2,6-difluoro-4-(1-methylpyrazol-4-yl)phenyl]methyl]-N-[(1S,2S)-2-hydroxycyclohexyl]thieno[3,2-b]pyridine-5-carboxamide]

- pEC50 [2]: 5.22
- Emax (Table 2, human M1): 50.2%
Structure (SMILES): Cn1cc(-c2cc(F)c(Cc3cc(C(=O)N[C@H]4CCC[C@@H]4O)nc4ccsc34)c(F)c2)cn1 [Compound 58, 7-[[2,6-difluoro-4-(1-methylpyrazol-4-yl)phenyl]methyl]-N-[(1S,2S)-2-hydroxycyclopentyl]thieno[3,2-b]pyridine-5-carboxamide]

- pEC50 [2]: 5.55
- Emax (Table 2, human M1): 88.5%
Structure (SMILES): Cn1cc(-c2cc(F)c(Cc3cc(C(=O)N[C@H]4CCOC[C@@H]4O)nc4ccsc34)c(F)c2)cn1 [Compound 59, 7-[[2,6-difluoro-4-(1-methylpyrazol-4-yl)phenyl]methyl]-N-[(3R,4S)-3-hydroxytetrahydropyran-4-yl]thieno[3,2-b]pyridine-5-carboxamide]

- pEC50 [2]: 5.25
- Emax (Table 2, human M1): 71.6%
Structure (SMILES): Cn1cc(-c2cc(F)c(Cc3cc(C(=O)N[C@H]4COCC[C@@H]4O)nc4ccsc34)c(F)c2)cn1 [Compound 60, 7-[[2,6-difluoro-4-(1-methylpyrazol-4-yl)phenyl]methyl]-N-[(3S,4S)-4-hydroxytetrahydropyran-3-yl]thieno[3,2-b]pyridine-5-carboxamide]
